{
  "source": "patent US5736161A",
  "about": "“Pharmaceutical preparation for improving the bioavailability of drugs which are difficult to absorb and a procedure for obtaining it” (Lipotec S.A., priority 1993, dated 1998)",
  "key": {"Xa": {"system": "Xa", "test": "Bioavailability test in dogs: anti-Xa activity in the plasma, ex-vivo chromogenic test (Coatest)", "set-up": "species or system dog", "procedure": "Bioavailability tests on the capsules prepared according to examples 1 and 2.\n(§1) Bioavailability studies in which the animals received 40 mg of heparin by the oral route or 10 mg by the subcutaneous route over a period of three days.\n(§2) Four dogs (2 for each treatment), each approximately 15 kg in weight.\nA bioassay (anti-Xa activity) was used to measure the concentrations in the plasma.\nThe anti-Xa activity in the plasma was measured ex-vivo using a chromogenic test using a commercially available kit (Coatest) and expressed in IU/ml. The values were calculated from a calibration curve obtained in-vitro by adding different quantities of SLMWH to dog plasma.\nThe blood was extracted from the femoral vein. Starting on the second day of experiments samples were collected before and 1, 2, 3, 4 and 6 hours after oral or subcutaneous administration, sodium citrate was added to the samples (9 vol. sangre:1 vol. 3.8% sodium citrate) followed by centrifuging at 1200 rpm for 20 minutes at 4° C. The plasma was separated immediately and the anti-Xa activity was tested."}, "[1]": {"test": "Urine analysis by HPLC (molecular weight) after chondroitinase AC treatment", "format": "in vivo, dog", "conditions": "chondroitinase AC treated, route not distinguished", "procedure": "as §1, §2\n(§3) The urine samples were treated with chondroitinase AC to eliminate the endogenous chondroitins. The residue was analyzed by means of proton NMR and HPLC (to determine the molecular weight)."}, "[2]": {"test": "Urine analysis by proton NMR after chondroitinase AC treatment", "format": "in vivo, dog", "conditions": "chondroitinase AC treated, route not distinguished", "procedure": "as §1, §2, §3"}, "[3]": {"conditions": "oral, capsules (examples 1 and 2), 40 mg heparin, second day"}, "[4]": {"conditions": "subcutaneous, 10 mg heparin, second day"}},
  "data": [
    {"substance": "sodium heparin of low molecular weight [SLMWH]", "values": [
      {"measurement": "levels of heparin in the blood (anti-Xa activity method)", "setting": "Xa; [3]", "value": "detectable"},
      {"measurement": "peak values of anti-Xa activity in plasma", "setting": "Xa; [3]", "value": "0.2-0.4 IU/ml"},
      {"measurement": "peak values of anti-Xa activity in plasma", "setting": "Xa; oral, capsules (examples 1 and 2), 40 mg heparin, third day, 1 and 2 hours after administration", "value": "0.8-1.2 IU/ml"},
      {"measurement": "significant anti-Xa activity in plasma after 6 hours", "setting": "Xa; oral, capsules (examples 1 and 2), 40 mg heparin, third day", "value": "> 0.3", "unit": "IU/ml"},
      {"measurement": "significant continued anti-Xa activity (>0.1 IU/ml) for 3 hours", "setting": "Xa; oral, capsules, 40 mg heparin, second day, not found after oral", "value": "only after subcutaneous administration"},
      {"measurement": "levels of heparin in the blood (anti-Xa activity method)", "setting": "Xa; subcutaneous injection, 10 mg heparin, second day", "value": "detectable"},
      {"measurement": "duration of significant continued anti-Xa activity (>0.1 IU/ml) in plasma", "setting": "Xa; [4]", "value": 3, "unit": "h"},
      {"measurement": "peak values of anti-Xa activity in plasma", "setting": "Xa; [4]", "value": "0.2-0.4 IU/ml"},
      {"measurement": "significant continued anti-Xa activity in plasma", "setting": "Xa; subcutaneous, 10 mg heparin, second day, for 3 hours", "value": "> 0.1", "unit": "IU/ml"},
      {"measurement": "peak values of anti-Xa activity in plasma", "setting": "Xa; subcutaneous, 10 mg heparin, third day, 1 and 2 hours after administration", "value": "0.8-1.2 IU/ml"},
      {"measurement": "significant anti-Xa activity in plasma after 6 hours", "setting": "Xa; subcutaneous, 10 mg heparin, third day", "value": "> 0.3", "unit": "IU/ml"},
      {"measurement": "basal values of anti-Xa activity before the final dose", "setting": "Xa; third day vs previous day, oral or subcutaneous, route not distinguished", "value": "significantly higher than the corresponding values on the previous day"},
      {"measurement": "molecular weight of the urine residue (HPLC)", "setting": "[1]", "value": 5, "unit": "kDaltons"},
      {"measurement": "H1-NMR test of urine", "setting": "[2]", "value": "presence of partially disulphated heparin"}
    ]}
  ]
}
